Experimental data taken from patent US20110152228A1, “SPRAYABLE PHARMACEUTICAL COMPOSITIONS COMPRISING A CORTICOID AND AN OILY PHASE” (Galderma, S.A., priority 2005, published 2011).

How the values were obtained:
[1] = Maximum solubility of clobetasol propionate in solvent oils, assessed visually (clarity/cloudiness); assay type: physicochemical
Method: (§1) The maximum solubility of clobetasol propionate was studied in various solvent oils according to the invention, in order to allow the choice most suitable for the concentration of active agent to be solubilized.
The solubility can also be assessed visually. Thus, minute proportions of the active agent are gradually added to the solvent oil with stirring. Visual observation of the clarity of the solution is carried out.

[2] = Maximum solubility of clobetasol propionate in solvent oils, UV assaying method; assay type: physicochemical
Method: as §1
It is measured by the UV assaying method.
Saturated solutions are prepared according to the following protocol:
0.1% of clobetasol propionate is added to the oily excipient.
The entire mixture is stirred overnight and then left for two hours without stirring.
The solutions for UV-assaying are then prepared by taking the supernatant 0.1 g of this saturated solution is weighed into a 100 ml volumetric flask and then made up to 100 ml with absolute ethanol. The assaying makes it possible to obtain data for maximum solubility of the active agent in the solvent oil under consideration.

Q: Which Visual solubility ([1]; solvent: Caprylic/capric triglycerides, maximum solubility) does the source give for `CCC(=O)O[C@]1(C(=O)CCl)[C@@H](C)C[C@H]2[C@@H]3CCC4=CC(=O)C=C[C@]4(C)[C@@]3(F)[C@@H](O)C[C@@]21C` [clobetasol propionate] here?
A: 0.25%

Q: And the Visual solubility ([1]; solvent: Dioctyl ether)?
A: insoluble

Q: And the Visual solubility ([1]; solvent: Isopropyl palmitate, maximum solubility)?
A: 0.14%

Q: What about the Visual solubility ([1]; solvent: Octyldodecanol, maximum solubility) of the same compound?
A: 0.16%

Q: What about the “UV Solubility at 266 nm” value ([2]; solvent: Cetearyl isononanoate) of the same compound?
A: 0.16%

Q: What about the “UV Solubility at 266 nm” value ([2]; solvent: Dioctyl ether) of the same compound?
A: 0.12%

Q: And the “UV Solubility at 266 nm” value ([2]; solvent: Ethyl oleate)?
A: 0.79%

Q: What about the “UV Solubility at 266 nm” value ([2]; solvent: Isopropyl palmitate) of the same compound?
A: 0.17%

Q: What about the “UV Solubility at 266 nm” value ([2]; solvent: Oleic acid) of the same compound?
A: 0.45%

Q: And the “UV Solubility at 266 nm” value ([2]; solvent: Oleyl alcohol)?
A: 0.86%
